Patent US20220233558A1, “METHOD AND COMPOSITION FOR PREDICTING EFFICACY OF BCL2/BCL-XL INHIBITORS ON CANCER” (Ascentage Pharma (Suzhou) Co., Ltd., priority 2019, published 2022)
Each block holds one molecule with its values, some of them ahead of it.

Key:
BCL-XL:BIM complex [1] = target: T1, BCL-XL:BIM complex (Homo sapiens, UniProt Q07817); assay: MSD advanced ELISA of BCL-XL:BIM complex in Toledo cells; assay type: cell-based; design: endogenous in cells; host or cells: Toledo; conditions: treated for 24 hours
Method: (§1) MSD advanced ELISA is a method similar to enzyme-linked immunosorbent assay (ELISA) except MSD uses electrochemiluminescence (ECL) as a detection technique while ELISA uses a colormetric reaction. In general, a solution (e.g. cell lysate) containing the protein/complex of interest is added to a substrate (e.g., wells in a plate) coated with a capture antibody specifically binding to a protein of interest. After washing, a second antibody specifically binding to a partner protein that binds to the protein of interest is added. The second antibody (or an antibody binding to the second antibody) is linked to an ECL agent, e.g. a ruthenium (Ru) metal ion, and the substrate contains an electrode. In the presence of the partner protein/protein complex, the second antibody binds to the protein complex, and the ruthenium ion will be close enough proximity to the electrode to trigger an oxidation-reduction reaction that produces light which can be detected by a CCD camera. Compared to a traditional ELISA, MSD has many advantages such as higher sensitivity, better dynamic range, less matric effects, less sample required and better efficiencies. As a result, MSD can be used to detect a protein complex in cell lysate.
(§2) Toledo (a diffuse large B cell lymphoma line) and RS4;11 (an acute lymphocytic leukemia line) were chosen for the study. Cells were treated for 24 hours with compounds specified in FIGS. 6A and 7A (Toledo), and FIGS. 6B and 7B (RS4;11; Compound B, ABT-737 and ABT-263 were used the same concentrations for each cell line) and harvested for complex analysis. Both BCL-2:BIM and BCL-XL:BIM complex were analyzed following previously established MSD advanced ELISA methods.

BCL-2:BIM complex = BCL-2:BIM complex (Homo sapiens, UniProt P10415); assay: MSD advanced ELISA of BCL-2:BIM complex in Toledo and RS4;11 cells; assay type: cell-based; conditions: treated for 24 hours
Method: Toledo (a diffuse large B cell lymphoma line) and RS4;11 (an acute lymphocytic leukemia line) were chosen for the study. […] Both BCL-2:BIM and BCL-XL:BIM complex were analyzed following previously established MSD advanced ELISA methods.
BCL-XL:BIM complex [2] = target: T1, BCL-XL:BIM complex; assay: MSD advanced ELISA of BCL-XL:BIM complex in RS4;11 cells; assay type: cell-based; design: endogenous in cells; host or cells: Toledo; conditions: treated for 24 hours
Method: as §1, §2

BCL-w = target: T2, BCL-w (Homo sapiens, UniProt Q92843); assay: Binding affinity to BCL-w protein
T2 sequence (Q92843 1-193): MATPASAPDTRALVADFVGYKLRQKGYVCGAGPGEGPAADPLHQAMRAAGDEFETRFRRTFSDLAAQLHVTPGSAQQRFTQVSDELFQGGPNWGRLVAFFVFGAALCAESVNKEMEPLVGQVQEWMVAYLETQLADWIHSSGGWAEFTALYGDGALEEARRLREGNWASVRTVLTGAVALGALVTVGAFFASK

caspase-3 and PARP = assay: Cleavage of caspase-3 and PARP (apoptosis markers); assay type: cell-based; conditions: in cancer cells and in xenograft tumor tissues
Mcl-1 protein = Mcl-1 protein (Homo sapiens, UniProt Q07820); assay: Binding affinity to Mcl-1 protein
BCL-2 = BCL-2 (Homo sapiens, UniProt P10415); assay: Binding affinity to BCL-2 protein
BCL-XL:BIM complex [3] = target: T1, BCL-XL:BIM complex; assay: MSD assay of BCL-XL complexes in gastric and esophageal cancer PDX models; assay type: in vivo; design: endogenous in cells
Method: as §1, with “Compared to a traditional ELISA, MSD has many advantages such as higher sensitivity, better dynamic range, less matric effects, less sample required and better efficiencies. As a result, MSD can be used to detect a protein complex in cell lysate.” left out
PDX models (including 8 gastric cancers and 3 esophageal cancers) were selected for trials with BCL-2/BCL-XL dual inhibitor Compound A. Models were treated with 100 mg/kg twice weekly dosing schedule for three weeks, and tumor tissues were harvested for complexes analysis (specified in the figure panels) with MSD methods. […] TGI for each animal was calculated.

BCL-xL = BCL-xL (Homo sapiens, UniProt Q07817); assay: Binding affinity to BCL-xL protein
cancer cell lines = assay: Cell growth inhibitory activity in vitro; assay type: cell-based; conditions: subset of cancer cell lines
[4] = test system: BCL-2, MCL-1, BIM, PUMA protein levels; assay: Western blotting of apoptosis proteins in PDX samples; assay type: in vivo; conditions: PDX models, Western blot
Method: PDX models (including 8 gastric cancers and 3 esophageal cancers) were selected for trials with BCL-2/BCL-XL dual inhibitor Compound A. Models were treated with 100 mg/kg twice weekly dosing schedule for three weeks, and tumor tissues were harvested for complexes analysis (specified in the figure panels) with MSD methods. Pharmacodynamics (PD) and biomarker studies of Compound A treatment were performed by MSD and Western blotting (WB) assays. Specifically, protein extraction was performed with the sample, level of protein complex was measured by MSD methods, and the level of protein was measured by Western Blotting. TGI for each animal was calculated.

T1 sequence (Q07817 whole entry, one chain of several): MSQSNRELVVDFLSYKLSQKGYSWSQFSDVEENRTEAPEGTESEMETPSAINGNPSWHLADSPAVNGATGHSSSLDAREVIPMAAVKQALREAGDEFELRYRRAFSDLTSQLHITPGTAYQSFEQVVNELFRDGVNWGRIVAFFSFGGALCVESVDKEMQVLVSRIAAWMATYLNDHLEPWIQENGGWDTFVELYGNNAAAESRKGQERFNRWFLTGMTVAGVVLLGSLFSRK
BCL-2, sequence (P10415 whole entry): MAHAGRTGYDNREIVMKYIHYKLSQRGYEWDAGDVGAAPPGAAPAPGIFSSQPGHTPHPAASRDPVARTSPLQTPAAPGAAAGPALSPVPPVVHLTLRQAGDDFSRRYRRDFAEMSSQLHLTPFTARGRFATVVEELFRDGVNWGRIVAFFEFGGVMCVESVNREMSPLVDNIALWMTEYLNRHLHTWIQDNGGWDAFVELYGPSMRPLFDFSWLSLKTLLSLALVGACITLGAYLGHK
BCL-2:BIM complex, sequence (P10415 whole entry, one chain of several): as the sequence (P10415 whole entry) above
BCL-xL, sequence (Q07817 whole entry): as the sequence (Q07817 whole entry, one chain of several) above
Mcl-1 protein, sequence (Q07820 whole entry): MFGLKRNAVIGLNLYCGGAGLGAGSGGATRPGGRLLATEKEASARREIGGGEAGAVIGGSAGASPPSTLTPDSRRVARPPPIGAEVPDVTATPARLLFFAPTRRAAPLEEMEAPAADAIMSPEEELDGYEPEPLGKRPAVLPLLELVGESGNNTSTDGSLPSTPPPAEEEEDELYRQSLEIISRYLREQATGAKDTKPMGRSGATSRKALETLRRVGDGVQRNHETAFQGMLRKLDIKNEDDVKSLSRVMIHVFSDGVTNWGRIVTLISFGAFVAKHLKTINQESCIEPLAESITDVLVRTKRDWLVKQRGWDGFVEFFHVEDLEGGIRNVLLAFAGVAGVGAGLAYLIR

change in BCL-2:BIM complex (BCL-2:BIM complex): reduction in BCL-2:BIM complex
Compound: CC1(C)CCC(c2ccc(Cl)cc2)=C(CN2CCN(c3ccc(C(=O)NS(=O)(=O)c4ccc(N[C@H](CCN5CCOCC5)CSc5ccccc5)c(S(=O)(=O)C(F)(F)F)c4)cc3)CC2)C1 [ABT-263]
disruption of BCL-XL:BIM complex (BCL-XL:BIM complex [1]): much less disruption of BCL-XL:BIM complex than Compound B
disruption of BCL-XL:BIM complex (BCL-XL:BIM complex [2]): much less disruption of BCL-XL:BIM complex than Compound B

Compound: CN(C)CC[C@H](CSc1ccccc1)Nc1ccc(S(=O)(=O)NC(=O)c2ccc(N3CCN(Cc4ccccc4-c4ccc(Cl)cc4)CC3)cc2)cc1[N+](=O)[O-] [ABT-737]
disruption of BCL-XL:BIM complex (BCL-XL:BIM complex [1]): much less disruption of BCL-XL:BIM complex than Compound B
disruption of BCL-XL:BIM complex (BCL-XL:BIM complex [2]): almost no disruption of BCL-xL:BIM complex

Compound: Cc1c(S(C)(=O)=O)c(-c2cc(F)cc(N3CCN(c4ccc(NS(=O)(=O)c5ccc(N[C@H](CCN6CCC(C(=O)OCCP(=O)(O)O)CC6)CSc6ccccc6)c(S(=O)(=O)C(F)(F)F)c5)cc4)CC3)c2)c(-c2ccc(Cl)cc2)n1C(C)C [Compound A, (R)-2-(1-(3-(4-(N-(4-(4-(3-(2-(4-chlorophenyl)-1-isopropyl-5-methyl-4-(methylsulfonyl)-1H-pyrrol-3-yl)-5-fluorophenyl)piperazin-1-yl)phenyl)sulfamoyl)-2-(trifluoromethylsulfonyl)phenylamino)-4-(phenylthiol)butyl)piperidine-4-carbonyloxy)ethylphosphonic acid]
IC50 (BCL-w): 9.3 nM
cleavage of caspase-3 and PARP (caspase-3 and PARP): effectively induces cleavage of caspase-3 and PARP
affinity to Mcl-1 protein (Mcl-1 protein): weak affinity
IC50 (BCL-2): 1.6 nM
level of BCL-XL:BIM complex after treatment (BCL-XL:BIM complex [3]; PDX models, 100 mg/kg twice weekly for three weeks, MSD assay): dropped
targeting of BCL-XL versus BCL-2 complex (BCL-XL:BIM complex [3]; in PDX): better in targeting BCL-XL than BCL-2 complex
IC50 (BCL-xL): 4.4 nM
cell growth inhibitory activity (cancer cell lines): nanomolar potencies
BCL-2 and MCL-1 anti-death protein levels after treatment [4]: significantly or in trend increases
pro-death proteins BIM or PUMA levels after treatment [4]: but not pro-death proteins BIM or PUMA

Compound: Cc1c(S(C)(=O)=O)c(-c2cc(F)cc(N3CCN(c4ccc(NS(=O)(=O)c5ccc(N[C@H](CCN6CCC(C(=O)O)CC6)CSc6ccccc6)c(S(=O)(=O)C(F)(F)F)c5)cc4)CC3)c2)c(-c2ccc(Cl)cc2)n1C(C)C [Compound B, (R)-1-(3-(4-(N-(4-(4-(3-(2-(4-chlorophenyl)-1-isopropyl-5-methyl-4-(methylsulfonyl)-1H-pyrrol-3-yl)-5-fluorophenyl)piperazin-1-yl)phenyl)sulfamoyl)-2-(trifluoromethylsulfonyl)phenylamino)-4-(phenylthio)butyl)piperldine-4-carboxylic acid]
disruption of BCL-XL:BIM complex (BCL-XL:BIM complex [1]): more potently disrupted BCL-XL:BIM than BCL-2:BIM complex
disruption of BCL-XL:BIM complex (BCL-XL:BIM complex [2]): more potently disrupted BCL-XL:BIM than BCL-2:BIM complex
